# The source made the active and inactive calls. The calls are words filed in the database; no cut-off is given here.
# Tests used:
# [1] = Oral bioavailability in rat at 2 mg/kg; type: ADME, organism-based; details: in vivo
# [2] = Metabolic stability of human microsomes assessed as compound turnover at 1 uM after 30 mins by LC-MS analysis; type: ADME, Microsome; details: read-out: Drug metabolism
# [3] = AUC in rat at 2 mg/kg, po; type: ADME, organism-based; parameters: dose 2 mg/kg, route oral; details: plasma
# [4] = target: T1, Probable G-protein coupled receptor 142 (Homo sapiens, UniProt Q7Z601); assay: Agonist activity at human GPR142 expressed in HEK293 cells assessed as inositol phosphate accumulation after 1 hr by scintillation counting; type: functional, cell-based
# T1 sequence (Q7Z601 whole entry): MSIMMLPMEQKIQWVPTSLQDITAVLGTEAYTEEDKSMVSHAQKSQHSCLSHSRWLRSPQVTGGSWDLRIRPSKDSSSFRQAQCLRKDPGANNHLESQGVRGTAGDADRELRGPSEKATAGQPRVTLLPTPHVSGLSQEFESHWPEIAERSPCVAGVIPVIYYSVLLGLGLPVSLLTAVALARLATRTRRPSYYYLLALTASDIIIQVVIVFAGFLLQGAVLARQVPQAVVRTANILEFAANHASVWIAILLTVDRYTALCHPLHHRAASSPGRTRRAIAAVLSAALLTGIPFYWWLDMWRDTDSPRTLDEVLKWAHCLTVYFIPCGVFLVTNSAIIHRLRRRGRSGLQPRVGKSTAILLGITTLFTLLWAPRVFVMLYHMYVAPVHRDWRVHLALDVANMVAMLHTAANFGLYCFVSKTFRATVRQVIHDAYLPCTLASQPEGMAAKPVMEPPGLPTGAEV
# [5] = Metabolic stability of rat microsomes assessed as compound turnover at 1 uM after 30 mins by LC-MS analysis; type: ADME, Microsome; details: read-out: Drug metabolism
# [6] = Mean residence time in rat at 2 mg/kg, po; type: ADME, organism-based; parameters: dose 2 mg/kg, route oral; details: in vivo
# [7] = Clearance in rat at 0.5 mg/kg, iv; type: ADME, organism-based; parameters: dose 0.5 mg/kg, route intravenous; details: in vivo
# [8] = Half life in rat at 0.5 mg/kg, iv; type: ADME, organism-based; parameters: dose 0.5 mg/kg, route intravenous; details: in vivo
# [9] = target: T2, Probable G-protein coupled receptor 142 (Homo sapiens) (UniProt Q7Z601); assay: Agonist activity at human GPR142 expressed in HEK293 cells assessed as inositol phosphate accumulation at 10 uM after 1 hr by scintillation counting; type: functional, cell-based
# T2 sequence (whole entry): T1 sequence (Q7Z601 whole entry)
# [10] = target: T2, Probable G-protein coupled receptor 142 (Homo sapiens); assay: Agonist activity at human GPR142 expressed in HEK293 cells assessed as inositol phosphate accumulation after 1 hr by scintillation counting in presence of 100% serum; type: functional, cell-based
# [11] = Volume of distribution at steady state in rat at 0.5 mg/kg, iv; type: ADME, organism-based; parameters: dose 0.5 mg/kg, route intravenous; details: in vivo, read-out: Vdss
# [12] = AUC in rat at 0.5 mg/kg, iv; type: ADME, organism-based; parameters: dose 0.5 mg/kg, route intravenous; details: plasma
# [13] = AUC in rat at 0.67 mg/kg, iv; type: ADME, organism-based; parameters: dose 0.67 mg/kg, route intravenous; details: plasma
# [14] = Volume of distribution at steady state in rat at 0.67 mg/kg, iv; type: ADME, organism-based; parameters: dose 0.67 mg/kg, route intravenous; details: in vivo, read-out: Vdss
# [15] = Clearance in rat at 0.67 mg/kg, iv; type: ADME, organism-based; parameters: dose 0.67 mg/kg, route intravenous; details: in vivo
# [16] = target: T3, Probable G-protein coupled receptor 142 (Mus musculus) (UniProt Q7TQN9); assay: Partial agonist activity at mouse GPR142 expressed in HEK293 cells relative to control; type: functional, cell-based
# T3 sequence (whole entry): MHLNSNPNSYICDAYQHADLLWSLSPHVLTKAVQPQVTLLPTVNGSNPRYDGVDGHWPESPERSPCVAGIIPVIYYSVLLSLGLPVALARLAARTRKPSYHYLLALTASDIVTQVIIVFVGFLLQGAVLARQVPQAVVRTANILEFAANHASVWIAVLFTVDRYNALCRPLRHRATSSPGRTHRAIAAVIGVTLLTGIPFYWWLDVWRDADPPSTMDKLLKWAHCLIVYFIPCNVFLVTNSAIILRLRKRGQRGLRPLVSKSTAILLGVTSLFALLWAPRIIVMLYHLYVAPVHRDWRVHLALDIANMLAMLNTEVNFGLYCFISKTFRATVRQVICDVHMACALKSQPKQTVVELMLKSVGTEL
# [17] = Half life in rat at 0.67 mg/kg, iv; type: ADME, organism-based; parameters: dose 0.67 mg/kg, route intravenous; details: in vivo
# [18] = test system: Mus musculus; assay: Antidiabetic activity in sc dosed B6D2F1 Harlan mouse assessed as decrease in blood glucose level administered 15 mins prior glucose challenge measured 7.5 mins post glucose challenge by glucometer analysis; type: functional, organism-based
# [19] = Half life in rat at 0.89 mg/kg, iv; type: ADME, organism-based; parameters: dose 0.89 mg/kg, route intravenous; details: in vivo
# [20] = test system: Mus musculus; assay: Antidiabetic activity in B6D2F1 Harlan mouse assessed as decrease in blood glucose level at 1 mg/kg, sc administered 15 mins prior glucose challenge measured 7.5 mins post glucose challenge by glucometer analysis; type: functional; parameters: scale not given: the % may be the effect or the level left; details: route subcutaneous
# [21] = test system: Mus musculus; assay: Antidiabetic activity in B6D2F1 Harlan mouse assessed as increase in serum insulin level at 0.30 mg/kg, sc administered 15 mins prior glucose challenge measured 7.5 mins post glucose challenge by ELISA; type: functional; details: dose 0.3 mg/kg; route subcutaneous
# [22] = test system: Mus musculus; assay: Antidiabetic activity in B6D2F1 Harlan mouse assessed as increase in serum insulin level at 30 mg/kg, sc administered 15 mins prior glucose challenge measured 7.5 mins post glucose challenge by ELISA; type: functional; details: route subcutaneous
# [23] = test system: Mus musculus; assay: Antidiabetic activity in B6D2F1 Harlan mouse assessed as decrease in blood glucose level at 0.10 mg/kg, sc administered 15 mins prior glucose challenge measured 7.5 mins post glucose challenge by glucometer analysis; type: functional, organism-based; parameters: dose 0.1 mg/kg
# [24] = Volume of distribution at steady state in rat at 0.89 mg/kg, iv; type: ADME, organism-based; parameters: dose 0.89 mg/kg, route intravenous; details: in vivo, read-out: Vdss
# [25] = test system: Mus musculus; assay: Antidiabetic activity in B6D2F1 Harlan mouse assessed as increase in serum insulin level at 1 mg/kg, sc administered 15 mins prior glucose challenge measured 7.5 mins post glucose challenge by ELISA; type: functional; details: route subcutaneous
# [26] = AUC in rat at 0.89 mg/kg, iv; type: ADME, organism-based; parameters: dose 0.89 mg/kg, route intravenous; details: plasma
# [27] = target: T3, Probable G-protein coupled receptor 142 (Mus musculus); assay: Agonist activity at mouse GPR142 expressed in HEK293 cells by inositol phosphate accumulation assay relative to control; type: functional, cell-based
# [28] = test system: Mus musculus; assay: Antidiabetic activity in sc dosed B6D2F1 Harlan mouse assessed as increase in serum insulin level administered 15 mins prior glucose challenge measured 7.5 mins post glucose challenge by ELISA; type: functional, organism-based
# [29] = test system: Mus musculus; assay: Antidiabetic activity in B6D2F1 Harlan mouse assessed as decrease in blood glucose level at 0.30 mg/kg, sc administered 15 mins prior glucose challenge measured 7.5 mins post glucose challenge by glucometer analysis; type: functional; parameters: scale not given: the % may be the effect or the level left; details: dose 0.3 mg/kg; route subcutaneous
# [30] = target: T4, Probable G-protein coupled receptor 142 (Mus musculus, UniProt Q7TQN9); assay: Agonist activity at mouse GPR142 expressed in HEK293 cells by inositol phosphate accumulation assay; type: functional, cell-based
# T4 sequence (Q7TQN9 whole entry): T3 sequence (whole entry)
# [31] = test system: Mus musculus; assay: Antidiabetic activity in B6D2F1 Harlan mouse assessed as increase in serum insulin level at 0.10 mg/kg, sc administered 15 mins prior glucose challenge measured 7.5 mins post glucose challenge by ELISA; type: functional, organism-based; parameters: dose 0.1 mg/kg
# [32] = test system: Mus musculus; assay: Antidiabetic activity in B6D2F1 Harlan mouse assessed as increase in serum insulin level at 5 mg/kg, sc administered 15 mins prior glucose challenge measured 7.5 mins post glucose challenge by ELISA; type: functional; details: route subcutaneous
# [33] = Clearance in rat at 0.89 mg/kg, iv; type: ADME, organism-based; parameters: dose 0.89 mg/kg, route intravenous; details: in vivo
# [34] = test system: Mus musculus; assay: Antidiabetic activity in B6D2F1 Harlan mouse assessed as decrease in blood glucose level at 3 mg/kg, sc administered 15 mins prior glucose challenge measured 7.5 mins post glucose challenge by glucometer analysis; type: functional; parameters: scale not given: the % may be the effect or the level left; details: route subcutaneous
# [35] = test system: Mus musculus; assay: Antidiabetic activity in B6D2F1 Harlan mouse assessed as decrease in blood glucose level at 30 mg/kg, sc administered 15 mins prior glucose challenge measured 7.5 mins post glucose challenge by glucometer analysis; type: functional; parameters: scale not given: the % may be the effect or the level left; details: route subcutaneous
# [36] = test system: Mus musculus; assay: Antidiabetic activity in B6D2F1 Harlan mouse assessed as increase in serum insulin level at 3 mg/kg, sc administered 15 mins prior glucose challenge measured 7.5 mins post glucose challenge by ELISA; type: functional; details: route subcutaneous
# [37] = test system: Mus musculus; assay: Antidiabetic activity in B6D2F1 Harlan mouse assessed as decrease in blood glucose level at 5 mg/kg, sc administered 15 mins prior glucose challenge measured 7.5 mins post glucose challenge by glucometer analysis; type: functional; parameters: scale not given: the % may be the effect or the level left; details: route subcutaneous
structure (smiles),measurement,setting,value
O=C(Nc1nnc(-c2ccncc2)s1)[C@H](Cc1ccccc1)NCc1cscn1,bioavailability,[1],10%
same,"metabolised at 0.5 h, 1 µM",[2],14%
same,AUC,[3],480 ng·h/mL
same,EC50,[4],0.086 µM
same,"metabolised at 0.5 h, 1 µM",[5],10%
same,MRT,[6],1.93 h
same,clearance,[7],7.33 mL/min/kg
same,half-life,[8],1.2 h
same,Emax,[9],115%
same,Activity,[10],Active
same,Vd,[11],0.21 L/kg
same,AUC,[12],1240 ng·h/mL
CNc1cc(-c2nnc(NC(=O)[C@H](Cc3ccccc3)NCc3cscn3)s2)ccn1,bioavailability,[1],36%
same,"metabolised at 0.5 h, 1 µM",[2],58%
same,AUC,[13],3030 ng·h/mL
same,AUC,[3],1730 ng·h/mL
same,EC50,[4],0.036 µM
same,"metabolised at 0.5 h, 1 µM",[5],66%
same,MRT,[6],2.36 h
same,Vd,[14],0.23 L/kg
same,clearance,[15],3.83 mL/min/kg
same,Emax,[9],96%
same,Emax,[16],37%
same,Activity,[10],inactive
same,half-life,[17],1.2 h
O=C(Nc1cc(-c2ccncc2)c[nH]c1=O)[C@H](Cc1ccccc1)NC1(c2ccccn2)CC1,bioavailability,[1],20%
same,Activity,[18],Dose-dependent effect
same,EC50,[18],0.85 µM
same,"metabolised at 0.5 h, 1 µM",[2],< 10%
same,AUC,[3],77 ng·h/mL
same,half-life,[19],0.2 h
same,Activity,[20],3%
same,EC50,[4],0.054 µM
same,"metabolised at 0.5 h, 1 µM",[5],60%
same,Activity,[21],15%
same,Activity,[22],98%
same,MRT,[6],1.79 h
same,Activity,[23],inactive
same,Vd,[24],1.1 L/kg
same,Activity,[25],41%
same,AUC,[26],177 ng·h/mL
same,Emax,[27],81%
same,Emax,[9],127%
same,Activity,[28],Dose-dependent effect
same,EC50,[28],0.29 µM
same,Activity,[29],0%
same,EC50,[30],0.0018 µM
same,Activity,[31],inactive
same,Activity,[32],81%
same,clearance,[33],83.3 mL/min/kg
same,Activity,[34],4%
same,Activity,[35],13%
same,Activity,[36],58%
same,Activity,[37],15%
